The source of these data is patent US20220402867A1, “SULFO-SUBSTITUTED BIARYL COMPOUND OR SALT THEREOF, PREPARATION METHOD THEREFOR, AND USE THEREOF” (Shanghai Litedd Co., Ltd., priority 2019, published 2022).

The target of data set [1] is T1, RORγt (RORγ-LBD chimeric receptor) (Homo sapiens, UniProt P51449).
T1 construct: host or cells: HEK293T
T1 sequence (P51449 269-508 limits assumed): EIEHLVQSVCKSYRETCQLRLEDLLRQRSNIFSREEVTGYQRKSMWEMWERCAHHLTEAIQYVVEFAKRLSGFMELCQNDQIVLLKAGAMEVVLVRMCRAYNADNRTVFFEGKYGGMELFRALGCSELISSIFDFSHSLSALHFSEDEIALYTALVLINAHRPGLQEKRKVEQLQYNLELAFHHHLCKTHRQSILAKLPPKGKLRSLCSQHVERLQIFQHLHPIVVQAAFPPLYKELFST
Description: Luciferase reporter gene assay of RORγt agonistic activity in HEK293T cells. In kind it is cell-based. Particulars: for EC50: HEK293T, GAL4 luciferase reporter, read-out: EC50; for Emax: HEK-293T. The arrangement: Emax: dose or concentration left out as unconfirmed. The essentials:
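HEK293T cells co-transfected with GAL4-RORγ-LBD (pBIND) and GAL4-driven luciferase reporter (pGL4.35), then treated with compounds (10-point 3-fold series; 10 mM top DMSO stock). Luminescence (Steady-Glo) normalised to positive and vehicle controls as % activity; EC50 by log-concentration fit.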
(In general: Reporter assays use an easily measured gene product as a stand-in for the process of interest.)

A short description of data set [2]: Pharmacokinetic (PK) assay in mice. In kind it is in vivo. Particulars: CD-1 mice; for AUC(0-t) / Cmax / half-life / Vd / bioavailability: mouse, plasma; for Vd: read-out: Vss; for bioavailability: Po 5 mg/kg vs IV 1 mg/kg. In short, it runs like this:
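CD-1 mice (3 per group) were dosed IV at 1 mg/kg in 5% DMSO/40% PEG400/55% (20% 3-CD) or by oral gavage at 5 mg/kg in DMSO/1% methylcellulose (1:99). Saphenous blood was sampled from 0 to 24 h into EDTA-K2 tubes for plasma. Plasma levels were measured by UPLC-MS/MS, and PK parameters were calculated from them.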

Each structure is given as a SMILES string. Read-outs that look alike come from different tables or passages of the source.

By EC50 is commonly meant the concentration needed to bring the measured effect to its halfway point. A word on the Emax: it is the size of the effect at its maximum, as opposed to the concentration needed. The AUC(0-t) is the area under the concentration-time curve up to a stated or last time point. What is called Cmax is the peak of the concentration-time curve. What is called half-life is the time needed for the level to fall by half in the phase considered. As for `CCS(=O)(=O)c1ccc(CC(=O)Nc2cc(Cl)c(-c3ccc(S(C)(=O)=O)cc3)c(Cl)c2)cc1` [Example 2, N-(2,6-dichloro-4′-(methylsulfonyl)-[1,1′-biphenyl]-4-yl)-2-(4-(ethylsulfonyl)phenyl)acetamide], in data set [1], the EC50 was found to be 19 nM and the Emax is 43%. In data set [2] (IV 1 mg/kg), this molecule gave a CL_obs of 426.2 mL/h/kg, an AUC(0-t) of 2250 ng·h/mL, a Cmax of 737 ng/mL and a half-life of 1.76 h. Also, in data set [2] (IV 1 mg/kg), the Vd is 1.09 L/kg. Moreover, the bioavailability in data set [2] came to 112%. Besides, in data set [2] (Po 5 mg/kg), the AUC(0-t) stood at 12600 ng·h/mL, the Cmax came out at 3030 ng/mL and the half-life was 2.46 h.
`CCS(=O)(=O)c1ccc(-c2c(Cl)cc(NC(=O)Cc3ccc(S(C)(=O)=O)cn3)cc2Cl)cc1` [Example 9, N-(2,6-Dichloro-4′-(ethylsulfonyl)-[1,1′-biphenyl]-4-yl)-2-(5-(methylsulfonyl)pyridin-2-yl)acetamide]: in data set [1], the EC50 stood at 53 nM and the Emax stood at 51.5%.
For the molecule `CCS(=O)(=O)c1ccc(C(COC)C(=O)Nc2cc(Cl)c(-c3ccc(S(=O)(=O)C4CC4)cc3)c(Cl)c2)cc1` (centres unmarked) [Example 16, N-(2,6-Dichloro-4′-(cyclopropylsulfonyl)-[1,1′-biphenyl]-4-yl)-2-(4-(ethylsulfonyl)phenyl)-3-methoxypropionamide], in data set [1], the EC50 was found to be 181 nM and the Emax stood at 85.6%. For the same molecule, the CL_obs in data set [2] (IV 1 mg/kg, values marked **) is on record as 4.51** mL/min/kg. Moreover, in data set [2] (IV 1 mg/kg), the AUC(0-t) was determined as 3660 ng·h/mL, the Cmax is 1170 ng/mL and the half-life was 3.88 h. In addition, the Vd in data set [2] (IV 1 mg/kg, values marked *) was found to be 1.1 L/kg. For the same molecule, the bioavailability in data set [2] worked out at 56.3%. Besides, in data set [2] (Po 5 mg/kg), the AUC(0-t) came out at 10300 ng·h/mL, the concentration peaked (Cmax) at 1420 ng/mL and the half-life is 3.3 h.
In the case of `COCC(C(=O)Nc1cc(Cl)c(-c2ccc(S(=O)(=O)C3CC3)cc2)c(Cl)c1)c1ccc(S(C)(=O)=O)cc1` (centres unmarked) [Example 20, N-(2,6-Dichloro-4′-(cyclopropylsulfonyl)-[1,1′-biphenyl]-4-yl)-3-methoxy-2-(4-(methylsulfonyl)phenyl)propionamide], in data set [1], the EC50 came out at 81 nM and the Emax came out at 63.5%. In data set [2] (IV 1 mg/kg, values marked **), the CL_obs is given as 1.98** mL/min/kg. Also, in data set [2] (IV 1 mg/kg), the AUC(0-t) was determined as 8280 ng·h/mL, the Cmax came out at 1160 ng/mL and the half-life was 4.85 h. For the same molecule, the Vd in data set [2] (IV 1 mg/kg, values marked *) is 0.75 L/kg. Further, in data set [2], the bioavailability amounted to 57.3%. In data set [2] (Po 5 mg/kg), this molecule showed an area under the curve AUC(0-t) of 21600 ng·h/mL, a peak concentration (Cmax) of 1660 ng/mL and a half-life of 6.95 h.
For the molecule `CS(=O)(=O)c1ccc(CC(=O)Nc2cc(Cl)c(-c3ccc(S(=O)(=O)C4CC4)cc3)c(Cl)c2)cc1` [Example 11, N-(2,6-Dichloro-4′-(cyclopropylsulfonyl)-[1,1′-biphenyl]-4-yl)-2-(4-(methylsulfonyl)phenyl)acetamide], in data set [1], the EC50 was 15 nM and the Emax was 45%. In data set [2] (IV 1 mg/kg), this molecule gave a CL_obs of 128.6 mL/h/kg, an AUC(0-t) of 7250 ng·h/mL, a maximum concentration (Cmax) of 709 ng/mL and a half-life of 6.33 h. For the same molecule, the Vd in data set [2] (IV 1 mg/kg) is 1.04 L/kg. Besides, the bioavailability in data set [2] was found to be 86.1%. In data set [2] (Po 5 mg/kg), this molecule showed an AUC(0-t) of 31200 ng·h/mL, a Cmax of 3810 ng/mL and a half-life of 4.52 h.
In the case of `CCS(=O)(=O)c1ccc(-c2c(Cl)cc(NC(=O)C(COC)c3ccc(S(=O)(=O)CC)cc3)cc2Cl)cc1` (centres unmarked) [Example 13, N-(2,6-Dichloro-4′-(ethylsulfonyl)-[1,1′-biphenyl]-4-yl)-2-(4-(ethylsulfonyl)phenyl)-3-methoxypropionamide], in data set [1], the EC50 is 69 nM and the Emax is 71.9%. For the same molecule, in data set [2] (IV 1 mg/kg), the CL_obs is 1264.7 mL/h/kg, the AUC(0-t) stood at 786 ng·h/mL, the Cmax came to 1320 ng/mL and the half-life was 0.63 h. Besides, the Vd in data set [2] (IV 1 mg/kg) turned out to be 0.713 L/kg. For the same molecule, the bioavailability in data set [2] was determined as 24.2%. In addition, in data set [2] (Po 5 mg/kg), the AUC(0-t) was determined as 952 ng·h/mL, the Cmax came out at 1220 ng/mL and the half-life was 0.54 h.
As to `CCS(=O)(=O)c1ccc(CC(=O)Nc2cc(Cl)c(-c3ccc(S(C)(=O)=O)cc3)c(Cl)c2)nc1` [Example 8, N-(2,6-Dichloro-4′-(methylsulfonyl)-[1,1′-biphenyl]-4-yl)-2-(5-(ethylsulfonyl)pyridin-2-yl)acetamide], in data set [1], the EC50 worked out at 44 nM and the Emax came to 37.9%.
For `CCS(=O)(=O)c1ccc(-c2c(Cl)cc(NC(=O)Cc3ccc(S(C)(=O)=O)cc3)cc2Cl)cc1` [Example 4, N-(2,6-Dichloro-4′-(ethylsulfonyl)-[1,1′-biphenyl]-4-yl)-2-(4-(methylsulfonyl)phenyl)acetamide] the same measures were 17 nM and 64%.
For the molecule `CCS(=O)(=O)c1ccc(-c2c(Cl)cc(NC(=O)Cc3ccc(S(=O)(=O)CC)cn3)cc2Cl)cc1` [Example 5, N-(2,6-Dichloro-4′-(ethylsulfonyl)-[1,1′-biphenyl]-4-yl)-2-(5-(ethylsulfonyl)pyridin-2-yl)acetamide], in data set [1], the 50% effective concentration (EC50) worked out at 37 nM and the maximal effect (Emax) is 69.6%. In data set [2] (IV 1 mg/kg), the CL_obs is 1367 mL/h/kg, the AUC(0-t) was 730 ng·h/mL, the peak level (Cmax) was 1360 ng/mL and the half-life was 0.45 h. Also, the Vd in data set [2] (IV 1 mg/kg) stood at 0.893 L/kg. The bioavailability in data set [2] was 38.8%. In data set [2] (Po 5 mg/kg), this molecule had an area under the curve AUC(0-t) of 1420 ng·h/mL, a Cmax of 1770 ng/mL and a half-life of 0.5 h.
On to `COCC(C(=O)Nc1ccc(-c2ccc(S(=O)(=O)C3CC3)cc2)c(C(F)(F)F)c1)c1ccc(S(C)(=O)=O)cc1` (single isomer, unassigned) [Example 43, (S)—N-(4′-(cyclopropylsulfonyl)-2-(trifluoromethyl)-[1,1′-biphenyl]-4-yl)-3-methoxy-2-(4-(methylsulfonyl)phenyl)propionamide or (R)—N-(4′-(cyclopropylsulfonyl)-2-(trifluoromethyl)-[1,1′-biphenyl]-4-yl)-3-methoxy-2-(4-(methylsulfonyl)phenyl)propanamide], for which, in data set [1], the EC50 amounted to 57 nM and the Emax came out at 64.1%. In addition, the CL_obs in data set [2] (IV 1 mg/kg, values marked **) is recorded as 4.31** mL/min/kg. In data set [2] (IV 1 mg/kg), this molecule had an AUC(0-t) of 3810 ng·h/mL, a Cmax of 787 ng/mL and a half-life of 4.14 h. For the same molecule, the Vd in data set [2] (IV 1 mg/kg, values marked *) stood at 1.38 L/kg. The bioavailability in data set [2] came to 89.1%. Moreover, in data set [2] (Po 5 mg/kg), the area under the curve AUC(0-t) worked out at 17100 ng·h/mL, the Cmax stood at 3040 ng/mL and the half-life is 3.51 h.
